Patent US9888679B2, “Protection of progenitor cells and regulation of their differentiation” (Proteobioactives Pty Ltd, priority 2007, dated 2018)
“Also recorded” adds a separate entry of the source.

Assays:
human progenitor cells = experiment: Proteoglycan synthesis in micromass cultures, 5 days; assay type: cell-based; settings: 5 day micromass; for proteoglycan synthesis / chondrogenic differentiation: dextran polysulfate 1-20 micrograms/mL, FIG. 19B; for proteoglycan synthesis (35SO4 incorporation into PGs): hyaluronan in place of PPS, FIG. 19A
Excerpt: FIG. 17. Bar graphs showing the concentration dependent effects of PPS on proteoglycan synthesis by human progenitor cells in micromass cultures for 5 days. Data is presented as 35S-GAG radioactivity and as a percentage of control taken as 100%. * P<0.05 relative to control.
FIG. 19. Bar graphs showing the concentration dependent effects of (A) Hyaluronan (Supartz™) and (B) Dextran Polysulfate on proteoglycan synthesis by human progenitor cells in micromass cultures for 5 days. Data is presented as ^35S-GAG radioactivity and as a percentage of control, taken as 100% or as DPM/ug DNA. * P<0.05 relative to control.
The technique used was based on that described by (Denker A E, Haas A R, Nicoll S B and Tuan R S. Chondrogenic differentiation of murine C3H10T1/2 multipotential progenitor cells: I. Stimulation by bone morphogenetic protein-2 in high density micromass cultures. Differentiation (1999); 64: 67-76). Briefly murine Progenitor cells (cell lines C3H10T1/2 or ATDC5) purchased from RIKEN Cell Bank (Tsukuba, Japan) or human immunoselected Stro-1+ Progenitor cells (Mesoblast Ltd, Melbourne, Australia) Ten microlitres (10 μl) of a suspension of the progenitor cells (1×10^7 cells/ml in Ham's F12 medium+10% FBS) were applied to individual wells of a 24-well plates. After incubatation at 37° C. in a humidified atmosphere of 5% CO2/95% air for 2-3 hours, 900 μl of Ham's F12 medium (10% FBS) and 100 μl of PPS solution in the same medium were added slowly into the wells to afford final concentrations of PPS in each of 0, 0.1, 0.5, 1.0, 2.5, 5.0, 10.0, 20.0 μg/ml alone or in combination with rhNC4 (0, 0.1, 0.5, 1.0, 2.5, 5.0, 10.0, 25.0 μg/ml). Each drug concentration was repeated in triplicate. The cells were maintained in culture for up to 10 days. The medium with/without drugs was changed every 3 days but 24 hours before termination of the experiment 80 μl of 50 μCi/ml ^35S-H2SO4 was added to achieve a final ^35SO4 concentration of 5 μCi/ml. The following day, the cells in one of the plates were trypsinized with 150 μl/well of 2.5% trypsin and separated from the medium by centrifugation at 800 g for 10 minutes, washed with 500 μl of 1×PBS and stored in liquid nitrogen for RNA and/or DNA extraction and analysis. Media and supernatants were combined in one tube for each concentration of PPS used. To the tubes was added, 200 μl of 5× Papain solution [2.5 mg/ml Papain, 7.9 mg/ml L-Cysteine in Papain buffer (0.1 M NaAC, 5 mM EDTA, pH6.0)] and the solution incubated at 65° C. for 2 hours. After papain digestion, Four aliquots of 200 μl of digested solution were transferred to a 96-well plate (200 μl/well). The ^35S-GAG released by the digestion step were separated from the free ^35SO4 by adding 20 μl 5% CPC and 10 μl 1 mg/ml CSA with gentle shaking at 300 rpm RT for 20-30 min to precipitate the ^35S-GAG-CPC complexes. The precipitates were collected by filtered through glass fibre filters using a cell harvester. The filters were then air-dried and discs punched to scintillation vials. 3 ml/vial scintillation cocktail liquid was added and vortexed for 30-45 sec. The radioactivity of ^35S—SO4 incorporated the ^35S-GAG-CPC complexes was measured by scintillation counting.
Data is presented as 35S-GAG radioactivity and as a percentage of control taken as 100%. * P<0.05 relative to control.
Similar experiments were undertaken using Hyaluronic acid (SuperArtz (SKK, Tokyo, Japan)) and Dextran polysulfate (MW=5000) (Sigma, Sydney, Australia) in place of PPS. […] Data is presented as 35S-GAG radioactivity and as a percentage of control taken as 100% or as DPM/ug DNA. * P<0.05 relative to control.

Murine ATDC5 cell line = experiment: Proteoglycan biosynthesis (35S-GAG) in pellet cultures; assay type: cell-based; settings: FIG. 14; for chondrogenic effect / proteoglycan synthesis: Heparin 1.25-20 ug/mL, 6 day pellet culture
Excerpt: FIG. 12. A bar graph of the concentration dependent effects of Pentosan Polysulfate (PPS), on the biosynthesis of Proteoglycans (PGs) as determined by the incorporation of radioactively labelled sulfate into the sulfated glycosaminoglycans (^35S-GAG) of PGs in 6 day pellet cultures of murine progenitor cells (ADTC-5). *=p<0.05 relative to control.
FIG. 22. A bar graph of the concentration dependent effects of rhNC4 (batch PBA-1202P) expressed by K. lactis, in the absence (maintenance media, MM) and presence of insulin (10 micrograms/mL) (differentiation media, DM), on the biosynthesis of Proteoglycans PGs) in pellet cultures of ATDC5 cells. Data is shown as the % change relative to controls taken to be 100%.
Murine Progenitor cells (cell lines C3H10T1/2 or ATDC5) purchased from RIKEN Cell Bank (Tsukuba, Japan) or human immunoselected Stro-1+ Progenitor cells (Mesoblast Ltd, Melbourne, Australia) were seeded in 2 ml screw-capped sterile centrifuge tubes and the total volume made-up to 1 ml with DMEM-High glucose medium containing 10% FBS. Progenitor cells were then centrifuged at 500 g for 10 min in a swing-out rotor at room temperature. The screw caps were loosened and the tubes placed in an incubator at 37° C., in a 5% CO2/95% air moist atmosphere. The pellets generally formed within 24 hours. Medium was changed daily in the first two days, then once every 2-3 days thereafter. On day 5 the medium was removed and to each tube was added 1 ml with DMEM-High glucose medium containing 10% FBS, 5.0 μCi/ml ^35S-H2SO4 and various concentrations of PPS (0, 0.1, 0.5, 1.0, 2.5, 5.0, 10.0, 20.0, μg/ml) (FIG. 12-15) or rhNC4 (0, 0.1, 0.5, 1.0, 2.0 μg/ml) (FIG. 22). Triplicate cultures were used for all concentration of drugs. The screw caps were loosened and the tubes placed in an incubator at 37° C., in a 5% CO2/95% moist air atmosphere […]. On day 6, 200 μl of stock papain solution [2.5 mg/ml papain, 7.9 mg/ml L-Cystein in papain buffer (0.1 M NaAC, 5 mM EDTA, pH6.0)] was added to each tube. The tubes were tightly capped and incubated at 65° C. for 2 hours. After papain digestion, 4 replicates of 200 μl of papain digested solution were separately transferred to a 96-well micro-titre plate (200 μl/well). The remaining solution was used for the DNA fluorometric assays which were undertaken in triplicate as described above. Biosynthesis of ^35S-GAGs was determined as described for the monolayer cultures and the results expressed as ^35-S-GAGs/μg DNA.
Data is shown as the % of controls taken to be 100%.

[1] = tested on: Primary human progenitor cells; experiment: Progenitor cell proliferation, WST-1 assay; assay type: cell-based; settings: HA alone; day 3 and day 5 cultures; FIG. 20
Experimental: (§1) FIG. 4. The Effects of Pentosan Polysulfate (PPS) on Human Progenitor cell Proliferation. Primary human progenitor cells were cultured in 24 well plates in growth media supplemented with PPS at the indicated concentrations. At various time intervals (day 1, 3, 6), the growth media was removed and replaced with phenol red free media containing the tetrazolium salt WST-1 for 2 hours at 37° C./5% CO2. WST-1 is cleaved by mitochondrial dehydrogenase in viable cells to produce a formazan dye that can be detected using an ELISA plate reader at a wavelength of 450 nm. Absorbance at 450 nm for each time point is shown for all concentrations of PPS.
FIG. 20. […] At various time intervals (day 3 & 5), the growth media was removed and replaced with phenol red free media containing the tetrazolium salt WST-1 for 2 hours at 37° C./5% CO2. Absorbance at 450 nm for each time point is shown for all concentrations of PPS and HA.
as §1, with “Primary” for “FIG. 4. The Effects of Pentosan Polysulfate (PPS) on Human Progenitor cell Proliferation. Primary”

ATDC5 cell = experiment: Kinetics of ATDC5 cell growth over 13 days; assay type: cell-based, murine; settings: rhNC4 (batch PBA-1200P) 5 ug/ml or Insulin 10 ug/ml; 20,000 cells per well at Day 0; FIG. 30
Experimental: FIG. 30. A bar graph of the kinetics of ATDC5 cell growth induced by rhNC4 (batch PBA-1200P) (5 ug/ml) or Insulin (10 ug/ml) relative to control over 13 days. 20,000 cells per well were seeded at Day 0 (Start) with medium changes every 48 hrs. Insulin treated cultures reached confluence on day 6 and PBA-1200P on day 9. Control cultures also reached confluence on day 9 but in contrast to cultures containing insulin or PBA-1200P ceased to undergo replication.

Dextran polysulfate
proteoglycan synthesis / chondrogenic differentiation (human progenitor cells): downregulate or repress differentiation
proteoglycan synthesis / chondrogenic differentiation (human progenitor cells; listed as Dextran Sulfate (DS)): inhibited PG synthesis
proteoglycan synthesis / chondrogenic differentiation (human progenitor cells; listed as dextran sulfate): concentration dependent reduction in the production of proteoglycans

Heparin
chondrogenic effect / proteoglycan synthesis (Murine ATDC5 cell line): does not exhibit a chondrogenic effect; also recorded: failed to significantly stimulate proteoglycan synthesis
chondrogenic effect / proteoglycan synthesis (Murine ATDC5 cell line; listed as heparin): suppressing chondrogenesis
proteoglycan synthesis (Murine ATDC5 cell line; Heparin 2.5 ugrams/mL, pellet culture): little activity
proteoglycan synthesis (Murine ATDC5 cell line; Heparin at higher concentrations (above 2.5 ugrams/mL)): may cause inhibition

Hyaluronan [HA]
proteoglycan synthesis (35SO4 incorporation into PGs) (human progenitor cells): appeared to increase synthesis of proteoglycans but not strongly
proteoglycan synthesis (35SO4 incorporation into PGs) (human progenitor cells; listed as hyaluronan (HA)): low level of ^35SO4 incorporation into PGs
progenitor cell proliferation (WST-1) [1]: absence of any significant stimulatory effect

Insulin
day on which cultures reached confluence (ATDC5 cell): 6 days
